# According to ChEMBL document CHEMBL5034023, “Development of Multifunctional and Orally Active Cyclic Peptide Agonists of Opioid/Neuropeptide FF Receptors that Produce Potent, Long-Lasting, and Peripherally Restricted Antinociception with Diminished Side Effects” (J Med Chem, 2021):
# The source made the active and inactive calls. No cut-off for these calls is given here. Bridge positions count the residues as written; N and C are the ends. Square brackets hold non-standard residues; d marks the D form. Peptide text beside a SMILES is read from it. NMeF = CN[C@@H](Cc1ccccc1)C(=O)O
# Columns and labels:
# Mus musculus [1] = experiment: Antinociceptive activity against Kunming mouse model of thermal-induced nociception assessed as prolongation of tail-flick latency period at 8.68 nmol/kg, po in presence of Nal at 1 mg/kg, ip measured up to 240 mins by tail-flick test; format: functional, organism-based; conditions: time min <=240
# Mus musculus [2] = experiment: Antinociceptive activity against sc dosed Kunming mouse model of thermal-induced nociception assessed as fold shift in duration of analgesic effect by tail-flick test relative to DN-9; format: functional
# [3] = AUC (0 to infinity) in Kunming mouse at 868.1 nmol/kg, iv measured up to 120 mins by LC-MS/MS analysis; format: ADME, organism-based; set-up: route intravenous, dose 868.1 nmol/kg, time <=120; conditions: in vivo, 2 h
smiles,measurement,setting,value
CN1C(=O)CNC(=O)[C@H](NC(=O)[C@@H](N)Cc2ccc(O)cc2)CCCCNC(=O)C[C@@H](C(=O)N2CCC[C@H]2C(=O)N[C@@H](CCC(N)=O)C(=O)N[C@@H](CCCNC(=N)N)C(=O)N[C@@H](Cc2ccccc2)C(N)=O)NC(=O)[C@@H]1Cc1ccccc1 (H-Y[dK]G[NMeF]DPQRF-NH2; lactam 2-5),Activity,Mus musculus [1],inactive
same,fold change (FC),Mus musculus [2],2.7
same,AUC,[3],33297.7 µg·min/L
